Literature values in article PMC7583271 (Journal of Insect Science, 2020).
pKd: −log10 of the molar value.

Target: antennal binding protein (PxylABP, accession no. AB189031.1)
Details: unit inferred, ref Deng et al. 2016

With `C=CCN=C=S` [Allyl isothiocyanate] as the molecule, how does the pKd read?
Its pKd is 6.04.
